Structures can show the parent of a compound that is named as a salt.
Experiments:
ST738 tumors = assay: TNBC PDX tumor model; assay type: in vivo, Balb/c nu/nu mice; details: Eribulin mesylate 1 mg/kg once a week for two weeks
Protocol: (§1) Female Balb/c nu/nu mice were fed ad libitum with folate-deficient chow (Harlan diet #TD01013) for the duration of the experiment. Primary human Endometrial model ST040, TNBC models 5T502 and ST738 and Ovarian model ST024 fragments (2-4 mm in diameter) were inoculated subcutaneously at the right flank of each mouse. Mice were randomized into 6 experimental groups of 5 or 3 mice each and test articles were injected through the lateral tail vein under sterile conditions in a volume of 200 μL of phosphate-buffered saline (PBS).
(§2) Growth of each s.c. tumor was followed by measuring the tumor two times per week until a volume of 1200 mm^3 was reached. Tumors were measured in two perpendicular directions using Vernier calipers, and their volumes were calculated as 0.5×L×W^2, where L=measurement of longest axis in mm and W=measurement of axis perpendicular to L in mm.

ST502 tumors = assay: TNBC PDX tumor model; assay type: in vivo, Balb/c nu/nu mice; details: Eribulin mesylate 1 mg/kg once a week for two weeks
Protocol: as §1, §2

ST024 tumors = assay: Ovarian PDX tumor model; assay type: in vivo, Balb/c nu/nu mice; details: Paclitaxel 15 mg/kg once a week for two weeks
Protocol: as §1, §2

ST040 tumors = assay: Endometrial PDX tumor model; assay type: in vivo, Balb/c nu/nu mice; details: Paclitaxel 15 mg/kg once a week for two weeks
Protocol: as §1, §2

[1] = Cytotoxicity of unconjugated drugs to cells in culture; assay type: cell-based; details: cells in culture; unconjugated drug; read-out: typical IC50, cytotoxic to cells in culture
[2] = Toxicity as measured by weight loss / gross animal toxicity in tumor-bearing mice; details: for Toxicity Avg. Weight Loss / Toxicity Deaths (%): TIW, 2 weeks
Protocol: METHOD. Toxicity as Measured by Weight Loss. The percentage weight change of the test animals was determined on selected days post-tumor inoculation (PTI), and during dosing. The results were graphed.
(§3) Evaluation. Tumor size was monitored and body weight measured 3 times/week. Attention was given to gross animal morphology and behavior. Euthanasia was performed if the mice lost >20% of weight or when the tumors reached a size of 1500 mm3. Euthanasia was also performed at the researcher's discretion if mice lost a lot of weight in a short duration or when mice were approaching moribund conditions. Blood samples were collected by cardiac puncture from all viable animals from selected cohorts. Heart, lungs, liver, spleen, kidney, intestines, bone, brain and muscle were obtained immediately after euthanasia. The tissues were removed and stored in 10% neutral-buffered formalin.

KB tumors = assay: Inhibition of tumor growth, s.c. KB tumors; assay type: in vivo, nu/nu mice; details: for CR (%) / Cures (%) / PR (%): TIW, 2 weeks
Protocol: METHOD. Inhibition of Tumor Growth in Mice. Four to seven week-old mice (Balb/c or nu/nu strains) were purchased from Harlan Sprague Dawley, Inc. (Indianapolis, Ind.). Normal rodent chow contains a high concentration of folic acid (6 mg/kg chow); accordingly, test animals were maintained on a folate-free diet (Harlan diet #TD00434) for about 1 week before tumor implantation to achieve serum folate concentrations close to the range of normal human serum, and during the Method. For tumor cell inoculation, 1×10^6 M109 cells (a syngeneic lung carcinoma) in Balb/c strain, or 1×10^6 KB cells in nu/nu strain, in 100 μL were injected in the subcutis of the dorsal medial area (right axilla). Tumors were measured in two perpendicular directions every 2-3 days using a caliper, and their volumes were calculated as 0.5×L×W^2, where L=measurement of longest axis in mm and W=measurement of axis perpendicular to L in mm.
Dosing solutions were prepared fresh each day in PBS and administered through the lateral tail vein of the mice.
Tumor implantation. KB tumor cells were grown in folate-deficient RPMI 1640 with 5% FBS at 37° C. in a 5% CO2 humidified atmosphere. KB (1×10^6 cells per animal) tumor cells were inoculated subcutaneously […] post start of the folate deficient diet. Mice were dosed after the tumors reached between 100-150 mm3.
Preparation of dosing drug solutions. Dosing solutions were prepared when dosing began by weighing appropriate amounts of each compound, reconstituting in PBS, pH 7.4, sterile filtering the drug solution through a 0.22 µm PVDF syringe filter, and freezing aliquots for each day of dosing at −20° C.
as §3
For example, a 50% decrease in tumor volume from the initial measurement represents a partial response.
For example, a decrease in tumor volume where the measurements in two perpendicular directions are each about 2 mm or less represents a complete response.

cells in culture = assay: Cytotoxicity of unconjugated drugs to cells in culture; assay type: cell-based; details: unconjugated drug; read-out: typical IC50, cytotoxic to cells in culture
[3] = tested on: KB-CR2000 (cisplatin resistant) tumors; assay: Cisplatin-resistant KB-CR2000 tumor model; assay type: in vivo, mice; details: cisplatin 3 mg/kg twice per week, 2 weeks
From the text: METHOD. Human cisplatin-resistant cell line. […] In addition, regrowth of the tumor was only observed in 1/5 test animals.

LU1147 NSCLC tumors = assay: Huprime NSCLC PDX tumor model; assay type: in vivo, Balb/c nu/nu mice; details: Docetaxel 15 mg/kg (one dose)
Protocol: (§4) Female Balb/c nu/nu mice were fed ad libitum with folate-deficient chow (Harlan diet #TD01013) for the duration of the experiment. Primary human NSCLC models LU1147 or LU2505 fragments (2-4 mm in diameter) were inoculated subcutaneously at the right flank of each mouse. Mice were randomized into experimental groups of 7 mice and test articles were injected through the lateral tail vein under sterile conditions in a volume of 200 μL of phosphate-buffered saline (PBS). These studies were performed at Crown Bioscience (Beijing) Inc., Ground Floor, Light Muller Building, Changping Sector of Zhongguancun Scientific Park, No. 21 Huoju Road, Changping District, Beijing, P.R. China.
as §2

LU2505 NSCLC tumors = assay: Huprime NSCLC PDX tumor model; assay type: in vivo, Balb/c nu/nu mice; details: Docetaxel 15 mg/kg (one dose)
Protocol: as §4, §2

[4] = KB tumors, 1.0 μmol/kg (2 doses)
[5] = 1.0 μmol/kg (2 doses, only 2 doses due to toxicity)
[6] = KB tumors, 0.1 μmol/kg (4 doses)
[7] = KB tumors, 0.2 μmol/kg (3 doses)
[8] = KB tumors, 0.5 μmol/kg (1 dose)
[9] = Carboplatin 30 mg/kg BIW×2 combined with paclitaxel 10 mg/kg BIW×2

C=C1C[C@@H]2CC[C@@]34C[C@H]5O[C@H]6[C@@H](O3)[C@H]3O[C@H](CC[C@@H]3O[C@H]6[C@H]5O4)CC(=O)C[C@@H]3[C@@H](OC)[C@@H](C[C@H](O)CN)O[C@H]3C[C@H]3O[C@@H](CC[C@@H]1O2)C[C@@H](C)C3=C [Eribulin mesylate, eribulin mesylate, reference compound]
PR's (ST738 tumors): 2 | animals exhibiting stable disease (ST738 tumors): 5 animals | animal exhibiting PR (ST502 tumors): 1 animal | animal exhibiting stable disease (ST502 tumors): 1 animal

CC(=O)O[C@H]1C(=O)[C@@]2(C)[C@H]([C@H](OC(=O)c3ccccc3)[C@]3(O)C[C@H](OC(=O)[C@H](O)[C@@H](NC(=O)c4ccccc4)c4ccccc4)C(C)=C1C3(C)C)[C@]1(OC(C)=O)CO[C@@H]1C[C@@H]2O [Paclitaxel, paclitaxel, reference compound]
anti-tumor activity (ST024 tumors): no anti-tumor activity | animals exhibiting stable disease (ST040 tumors): zero

CCCC(=O)OCN(C(=O)[C@@H](NC(=O)[C@H]1CCCCN1C)C(C)CC)[C@H](C[C@@H](OC(C)=O)c1nc(C(=O)N[C@@H](Cc2ccc(O)cc2)C[C@H](C)C(=O)NN)cs1)C(C)C (stereo partly shown) [TubB-H, reference compound]
IC50 [1]: ~1 nM | Toxicity Avg. Weight Loss ([2]; KB tumors, 0.5 μmol/kg): <5.5% | Toxicity Deaths (%) ([2]; KB tumors, 0.5 μmol/kg): 0% | Toxicity Avg. Weight Loss ([2]; KB tumors, 0.75 μmol/kg): >10% | Toxicity Deaths (%) ([2]; KB tumors, 0.75 μmol/kg): 20% | Toxicity Avg. Weight Loss [2, 4]: >15% | Toxicity Deaths (%) [2, 4]: 20% | CR (%) (KB tumors; 0.5 μmol/kg): 0% | Cures (%) (KB tumors; 0.5 μmol/kg): 0% | PR (%) (KB tumors; 0.5 μmol/kg): 0% | CR (%) (KB tumors; 0.75 μmol/kg): 0% | Cures (%) (KB tumors; 0.75 μmol/kg): 0% | PR (%) (KB tumors; 0.75 μmol/kg): 0% | CR (%) (KB tumors; [5]): 0% | Cures (%) (KB tumors; [5]): 0% | PR (%) (KB tumors; [5]): 0%

CCCC(=O)OCN(C(=O)[C@@H](NC(=O)[C@H]1CCCCN1C)[C@@H](C)CC)[C@H](C[C@@H](OC(C)=O)c1nc(C(=O)N[C@@H](Cc2ccc(O)cc2)C[C@H](C)C(=O)O)cs1)C(C)C [Tubulysin B, tubulysin B, reference compound]
IC50 (cells in culture): ~1 nM | Toxicity Avg. Weight Loss [2, 6]: >20% | Toxicity Deaths (%) [2, 6]: 100% | Toxicity Avg. Weight Loss [2, 7]: >18% | Toxicity Deaths (%) [2, 7]: 100% | Toxicity Avg. Weight Loss [2, 8]: >15% | Toxicity Deaths (%) [2, 8]: 100% | CR (%) (KB tumors; 0.1 μmol/kg (4 doses)): 0% | Cures (%) (KB tumors; 0.1 μmol/kg (4 doses)): 0% | PR (%) (KB tumors; 0.1 μmol/kg (4 doses)): 0% | CR (%) (KB tumors; 0.2 μmol/kg (3 doses)): 0% | Cures (%) (KB tumors; 0.2 μmol/kg (3 doses)): 0% | PR (%) (KB tumors; 0.2 μmol/kg (3 doses)): 0% | CR (%) (KB tumors; 0.5 μmol/kg (1 dose)): 0% | Cures (%) (KB tumors; 0.5 μmol/kg (1 dose)): 0% | PR (%) (KB tumors; 0.5 μmol/kg (1 dose)): 0%

N.N.O=C([O-])C1(C(=O)[O-])CCC1.[Pt+2] [carboplatin, reference compound]
toxicity ([2]; KB tumors, carboplatin/paclitaxel study, carboplatin administered alone): Mild toxicity | toxicity ([2]; P-1635 KB tumors, carboplatin alone 50 mg/kg TIW): Mild toxicity | CR's (KB tumors; [9]): 80% | cures (KB tumors; [9]): 20%

N.N.[Cl][Pt][Cl] [cisplatin, reference compound]
partial response (PR) [3]: did not produce even a single partial response

CC(=O)O[C@@]12CO[C@@H]1C[C@H](O)[C@@]1(C)C(=O)[C@H](O)C3=C(C)[C@@H](OC(=O)[C@H](O)[C@@H](NC(=O)OC(C)(C)C)c4ccccc4)C[C@@](O)([C@@H](OC(=O)c4ccccc4)[C@H]21)C3(C)C [docetaxel]
animals exhibiting stable disease (LU1147 NSCLC tumors): 2 animals | CR's (LU2505 NSCLC tumors): 2 | PR's (LU2505 NSCLC tumors): 2 | cures (LU2505 NSCLC tumors): 2 | toxicity ([2]; KB tumors, docetaxel alone 7 mg/kg BIW×3): Mild toxicity

COc1cccc2c1C(=O)c1c(O)c3c(c(O)c1C2=O)C[C@@](O)(C(=O)CO)C[C@@H]3O[C@H]1C[C@H](N)[C@H](O)[C@H](C)O1 [doxorubicin, reference compound]
toxicity ([2]; KB-DR150 tumors, doxorubicin alone, DOXIL 5 mg/kg BIW×2): Mild toxicity

— US20170035894A1, “DRUG DELIVERY CONJUGATES FOR TREATING RESISTANT CANCER AND FOR USE IN COMBINATION THERAPY” (ENDOCYTE, INC., priority 2014, published 2017)
